Data taken from patent US7838556B2 (priority 2006, dated 2010).
Where a name gives a salt, the structure may show the parent alone. Read-outs that look alike come from different tables or passages of the source.

What was measured:
[1] = target: Calcium Channel, Type L (Dihydropyridine Site); settings: cited from earlier work
Sodium, Site 2 = format: binding
GABAA receptors [2] = format: binding, rat
GABAB receptors [3] = target: T1, GABAB receptors (Rattus norvegicus, UniProt Q9Z0U4); format: binding
Melatonin, Non-selective = format: binding
[4] = target: Muscarinic, Non-selective, Central; format: binding
[5] = target: Muscarinic, Non-selective, Peripheral; format: binding
GABAA receptors [6] = settings: cited from earlier work
GABAB receptors [7] = target: T1, GABAB receptors; settings: cited from earlier work
GABA receptors [8] = settings: cited from earlier work
GABA receptors [9] = format: binding, rat
Calcium Channel, Type N = Calcium Channel, Type N (Homo sapiens, UniProt Q00975); format: binding
Opiod, Non-selective = format: binding
[10] = tested on: Adrenergic, Beta, Non-selective; format: binding
Adenosine, Non-selective = format: binding
Dopamine, Non-selective = format: binding
[11] = tested on: Calcium Channel, Type L (Benzothiazepine Site); format: binding
[12] = tested on: Adrenergic, Alpha 2, Non-selective; format: binding
Sigma, Non-selective = format: binding
GABA, Non-Selective = format: binding
[13] = tested on: GABA, Chloride, TBOB Site; format: binding
[14] = target: Potassium Channel, ATP-Sensitive (Rattus norvegicus, UniProt Q09429); format: binding
[15] = tested on: Calcium Channel, Type L (Dihydropyridine Site); format: binding
[16] = tested on: Adrenergic, Alpha 1, Non-selective; format: binding
[17] = target: Potassium Channel, I[Kr] (hERG) (hr) (Homo sapiens, UniProt Q12809)
Serotonin, Non-selective = format: binding
[18] = target: T2, GHB receptors (GHB sites) (Rattus norvegicus, UniProt P11275); settings: cited from earlier work
[19] = target: T2, GHB receptors (GHB sites); format: binding

T1 sequence (O88871 41-940): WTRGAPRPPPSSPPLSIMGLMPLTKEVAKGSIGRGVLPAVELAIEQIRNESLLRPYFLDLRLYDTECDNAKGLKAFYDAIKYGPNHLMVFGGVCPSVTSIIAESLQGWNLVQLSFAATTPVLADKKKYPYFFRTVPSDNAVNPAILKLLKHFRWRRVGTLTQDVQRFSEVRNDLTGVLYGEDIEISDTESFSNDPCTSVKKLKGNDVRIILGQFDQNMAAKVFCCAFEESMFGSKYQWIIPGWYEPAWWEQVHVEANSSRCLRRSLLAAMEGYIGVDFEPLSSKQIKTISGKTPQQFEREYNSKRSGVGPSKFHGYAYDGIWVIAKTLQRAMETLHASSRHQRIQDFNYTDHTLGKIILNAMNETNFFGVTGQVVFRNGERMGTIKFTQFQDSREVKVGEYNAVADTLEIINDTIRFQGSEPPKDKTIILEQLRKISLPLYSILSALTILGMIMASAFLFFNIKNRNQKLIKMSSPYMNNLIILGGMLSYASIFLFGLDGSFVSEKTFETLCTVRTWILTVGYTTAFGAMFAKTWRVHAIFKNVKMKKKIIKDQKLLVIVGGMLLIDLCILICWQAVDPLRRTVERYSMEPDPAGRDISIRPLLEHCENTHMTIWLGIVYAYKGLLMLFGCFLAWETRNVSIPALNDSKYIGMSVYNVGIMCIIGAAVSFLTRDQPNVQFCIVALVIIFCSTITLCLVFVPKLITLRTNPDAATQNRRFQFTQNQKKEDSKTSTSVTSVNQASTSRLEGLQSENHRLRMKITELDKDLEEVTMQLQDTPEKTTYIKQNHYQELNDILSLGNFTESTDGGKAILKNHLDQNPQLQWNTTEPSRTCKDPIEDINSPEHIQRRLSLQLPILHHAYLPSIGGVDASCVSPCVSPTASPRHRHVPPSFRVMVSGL
T1 sequence (Q9Z0U4 17-960): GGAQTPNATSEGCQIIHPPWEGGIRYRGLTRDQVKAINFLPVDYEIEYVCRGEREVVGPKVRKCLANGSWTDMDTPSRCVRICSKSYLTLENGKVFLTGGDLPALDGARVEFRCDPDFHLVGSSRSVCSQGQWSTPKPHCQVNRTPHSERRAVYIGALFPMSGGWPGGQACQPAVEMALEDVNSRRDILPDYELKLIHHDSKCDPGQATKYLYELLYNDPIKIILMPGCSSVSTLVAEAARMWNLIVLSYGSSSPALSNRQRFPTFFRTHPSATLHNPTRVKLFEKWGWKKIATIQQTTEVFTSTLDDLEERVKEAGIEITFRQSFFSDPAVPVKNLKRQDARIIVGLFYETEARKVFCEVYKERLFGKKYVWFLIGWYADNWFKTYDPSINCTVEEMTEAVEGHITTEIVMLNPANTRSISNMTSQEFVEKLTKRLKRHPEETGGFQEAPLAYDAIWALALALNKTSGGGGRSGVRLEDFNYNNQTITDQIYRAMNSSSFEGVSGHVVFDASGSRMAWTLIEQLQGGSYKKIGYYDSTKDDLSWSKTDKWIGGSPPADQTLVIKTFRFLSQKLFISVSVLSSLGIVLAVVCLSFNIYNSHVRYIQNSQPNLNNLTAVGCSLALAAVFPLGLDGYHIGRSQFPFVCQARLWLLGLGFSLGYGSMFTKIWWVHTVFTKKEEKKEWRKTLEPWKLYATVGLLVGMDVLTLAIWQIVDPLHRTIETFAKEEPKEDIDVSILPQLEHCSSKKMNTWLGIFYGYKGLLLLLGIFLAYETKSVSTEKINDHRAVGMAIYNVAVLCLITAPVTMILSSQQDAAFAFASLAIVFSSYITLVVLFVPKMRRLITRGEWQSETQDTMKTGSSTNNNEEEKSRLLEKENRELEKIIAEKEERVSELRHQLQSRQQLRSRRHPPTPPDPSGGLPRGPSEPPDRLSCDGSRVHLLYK
Chain of Potassium Channel, I[Kr] (hERG) (hr) (Q12809 whole entry): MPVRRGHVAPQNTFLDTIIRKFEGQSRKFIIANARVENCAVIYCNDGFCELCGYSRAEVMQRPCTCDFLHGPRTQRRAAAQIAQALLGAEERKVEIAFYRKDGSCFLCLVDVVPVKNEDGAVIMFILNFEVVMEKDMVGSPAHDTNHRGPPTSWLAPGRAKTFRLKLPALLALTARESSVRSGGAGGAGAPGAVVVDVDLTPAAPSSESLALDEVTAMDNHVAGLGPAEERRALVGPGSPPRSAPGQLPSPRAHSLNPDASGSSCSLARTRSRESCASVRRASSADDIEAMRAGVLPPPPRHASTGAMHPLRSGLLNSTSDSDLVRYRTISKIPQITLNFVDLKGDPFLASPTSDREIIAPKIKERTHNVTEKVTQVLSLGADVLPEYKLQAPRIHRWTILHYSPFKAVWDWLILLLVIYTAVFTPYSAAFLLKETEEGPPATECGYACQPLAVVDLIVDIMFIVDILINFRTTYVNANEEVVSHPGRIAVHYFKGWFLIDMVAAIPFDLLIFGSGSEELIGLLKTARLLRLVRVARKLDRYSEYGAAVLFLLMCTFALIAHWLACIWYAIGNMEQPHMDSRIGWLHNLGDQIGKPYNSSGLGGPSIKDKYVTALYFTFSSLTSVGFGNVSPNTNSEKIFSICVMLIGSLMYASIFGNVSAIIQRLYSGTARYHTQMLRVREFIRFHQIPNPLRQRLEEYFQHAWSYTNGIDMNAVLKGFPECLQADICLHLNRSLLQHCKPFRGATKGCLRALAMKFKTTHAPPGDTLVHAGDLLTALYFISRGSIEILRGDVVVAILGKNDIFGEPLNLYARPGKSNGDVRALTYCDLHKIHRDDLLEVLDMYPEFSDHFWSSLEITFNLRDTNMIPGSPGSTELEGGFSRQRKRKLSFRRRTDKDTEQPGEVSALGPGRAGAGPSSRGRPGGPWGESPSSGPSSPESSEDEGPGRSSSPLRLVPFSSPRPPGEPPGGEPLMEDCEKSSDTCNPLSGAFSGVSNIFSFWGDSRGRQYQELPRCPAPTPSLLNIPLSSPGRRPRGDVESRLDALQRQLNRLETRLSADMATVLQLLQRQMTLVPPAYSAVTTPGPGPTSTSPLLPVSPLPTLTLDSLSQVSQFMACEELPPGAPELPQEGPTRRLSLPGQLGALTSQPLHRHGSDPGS
T2 sequence (P11275 whole entry): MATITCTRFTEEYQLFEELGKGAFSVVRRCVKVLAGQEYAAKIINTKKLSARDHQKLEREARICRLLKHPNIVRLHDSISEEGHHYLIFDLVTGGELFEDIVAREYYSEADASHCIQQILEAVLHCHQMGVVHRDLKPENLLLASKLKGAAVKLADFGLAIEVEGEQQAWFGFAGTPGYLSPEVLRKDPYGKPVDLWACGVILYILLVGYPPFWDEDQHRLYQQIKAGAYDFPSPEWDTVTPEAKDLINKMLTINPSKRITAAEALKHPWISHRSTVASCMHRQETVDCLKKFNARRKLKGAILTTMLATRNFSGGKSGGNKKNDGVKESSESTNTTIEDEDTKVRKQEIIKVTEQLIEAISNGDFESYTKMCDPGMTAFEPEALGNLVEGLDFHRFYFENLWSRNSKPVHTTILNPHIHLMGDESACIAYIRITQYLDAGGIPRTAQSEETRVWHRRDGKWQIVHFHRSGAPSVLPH

CCOC(=O)C1=C(C)NC(C)=C(C(=O)OC)C1c1cccc([N+](=O)[O-])c1 (stereo not drawn) [[3H]Nitrendipine]
Kd [1]: 0.2 nM

CCN1C[C@]2(COC)[C@H](O)C[C@H](OC)[C@@]34[C@@H]5C[C@@]6(O)[C@H](OC(=O)c7ccccc7)[C@@H]5[C@@](OC(C)=O)([C@@H]([C@H](OC)[C@H]23)[C@@H]14)[C@@H](O)[C@@H]6OC [Aconitine, reference compound]
Ki (Sodium, Site 2; read-out: Ki (M) Ref. Cpd.): 6.67e-07 M

O=C(O)CCCOc1ccccc1 [Compound 8, reference compound]
Percent displacement of [3H]GABA at 1 Mm, GABAA (GABAA receptors [2]): 6.3 ± 1.7% | Percent displacement of [3H]GABA at 1 Mm, GABAB (GABAB receptors [3]): 6.5 ± 1.0%

CN1[C@@H]2CC[C@H]1C[C@@H](OC(=O)C(CO)c1ccccc1)C2 (stereo partly drawn) [Atropine sulfate, reference compound]
Ki ([4]; read-out: Ki (M) Ref. Cpd.): 1.26e-10 M | Ki ([5]; read-out: Ki (M) Ref. Cpd.): 5.8e-10 M

O=C(O)CCCO [Compound 1, Gamma-hydroxybutyric acid]
Percent displacement of [3H]GABA at 1 Mm, GABAA (GABAA receptors [6]): 35.5 ± 3.7% | Percent displacement of [3H]GABA at 1 Mm, GABAB (GABAB receptors [7]): 41.1 ± 3.1% | affinity for GABA receptors (GABA receptors [8]): weak affinity

O=C(O)Cc1cccc(Oc2ccccc2)c1 [Compound 12, phenyl ether of 3-hydroxyphenylacetic acid]
Percent displacement of [3H]GABA at 1 Mm, GABAA (GABAA receptors [2]): 2.7 ± 0.5% | Percent displacement of [3H]GABA at 1 Mm, GABAB (GABAB receptors [3]): −5.5 ± 1.2% | affinity at GABA receptors / displacement of [3H]GABA compared with 3-hydroxyphenylacetic acid (GABA receptors [9]): decreased affinity

O=C(O)Cc1cccc(OCCc2ccccc2)c1 [Compound 10, phenethyl ether of 3-hydroxyphenylacetic acid]
Activity (Calcium Channel, Type N): No (key: No: Activity = greater than or equal to 50% Inhibition of binding) | Percent Inhibition (Average; N = 2) (Calcium Channel, Type N): −2.31% | Percent displacement of [3H]GABA at 1 Mm, GABAA (GABAA receptors [2]): 15.1 ± 7.5% | Percent displacement of [3H]GABA at 1 Mm, GABAB (GABAB receptors [3]): −1.2 ± 7.3% | Activity (Opiod, Non-selective): No (key: No: Activity = greater than or equal to 50% Inhibition of binding) | Percent Inhibition (Average; N = 2) (Opiod, Non-selective): 0.09% | Activity [4]: No (key: No: Activity = greater than or equal to 50% Inhibition of binding) | Percent Inhibition (Average; N = 2) [4]: 6.98% | Activity [10]: No (key: No: Activity = greater than or equal to 50% Inhibition of binding) | Percent Inhibition (Average; N = 2) [10]: 43.67% | Activity [5]: No (key: No: Activity = greater than or equal to 50% Inhibition of binding) | Percent Inhibition (Average; N = 2) [5]: −0.77% | Activity (Sodium, Site 2): No (key: No: Activity = greater than or equal to 50% Inhibition of binding) | Percent Inhibition (Average; N = 2) (Sodium, Site 2): 10.18% | Activity (Adenosine, Non-selective): No (key: No: Activity = greater than or equal to 50% Inhibition of binding) | Percent Inhibition (Average; N = 2) (Adenosine, Non-selective): −3.45% | Activity (Dopamine, Non-selective): No (key: No: Activity = greater than or equal to 50% Inhibition of binding) | Percent Inhibition (Average; N = 2) (Dopamine, Non-selective): 14.51% | Activity [11]: No (key: No: Activity = greater than or equal to 50% Inhibition of binding) | Percent Inhibition (Average; N = 2) [11]: 9.41% | Activity [12]: No (key: No: Activity = greater than or equal to 50% Inhibition of binding) | Percent Inhibition (Average; N = 2) [12]: 0.21% | Activity (Sigma, Non-selective): No (key: No: Activity = greater than or equal to 50% Inhibition of binding) | Percent Inhibition (Average; N = 2) (Sigma, Non-selective): 4.30% | Activity (GABA, Non-Selective): No (key: No: Activity = greater than or equal to 50% Inhibition of binding) | Percent Inhibition (Average; N = 2) (GABA, Non-Selective): 10.28% | Activity [13]: No (key: No: Activity = greater than or equal to 50% Inhibition of binding) | Percent Inhibition (Average; N = 2) [13]: −15.01% | Activity [14]: No (key: No: Activity = greater than or equal to 50% Inhibition of binding) | affinity at GABA receptors / displacement of [3H]GABA compared with 3-hydroxyphenylacetic acid (GABA receptors [9]): decreased affinity | Activity [15]: No (key: No: Activity = greater than or equal to 50% Inhibition of binding) | Percent Inhibition (Average; N = 2) [15]: 14.52% | Activity [16]: No (key: No: Activity = greater than or equal to 50% Inhibition of binding) | Percent Inhibition (Average; N = 2) [16]: −10.77% | Activity [17]: No (key: No: Activity = greater than or equal to 50% Inhibition of binding) | Percent Inhibition (Average; N = 2) ([17]; human): −11.94% | Activity (Serotonin, Non-selective): No (key: No: Activity = greater than or equal to 50% Inhibition of binding) | Percent Inhibition (Average; N = 2) (Serotonin, Non-selective): −1.83% | Activity (Melatonin, Non-selective): No (key: No: Activity = greater than or equal to 50% Inhibition of binding) | Percent Inhibition (Average; N = 2) (Melatonin, Non-selective): 12.69%

C=CCc1ccccc1OCC(O)CNC(C)C (stereo not drawn) [Alprenolol HCl, reference compound]
Ki ([10]; read-out: Ki (M) Ref. Cpd.): 3.33e-09 M

O=C(O)Cc1cccc(O)c1 [Compound 7, 3-hydroxyphenylacetic acid]
Percent displacement of [3H]GABA at 1 Mm, GABAA (GABAA receptors [6]): 44.2 ± 2.0% | Percent displacement of [3H]GABA at 1 Mm, GABAB (GABAB receptors [7]): 14.0 ± 4.0% | affinity for GABA receptors (GABA receptors [8]): weak affinity

O=C(O)Cc1cccc(O)c1 [3-hydroxyphenylacetic acid]
Percent displacement of [3H]GABA at 1 Mm, GABAA (GABAA receptors [6]): 44% | affinity at GHB receptors compared with GHB [18]: greater affinity than GHB

O=C(O)Cc1cccc(OCc2ccccc2)c1 [Compound 11, benzyl ether of 3-hydroxyphenylacetic acid]
Percent displacement of [3H]GABA at 1 Mm, GABAA (GABAA receptors [2]): 11.0 ± 6.2% | Percent displacement of [3H]GABA at 1 Mm, GABAB (GABAB receptors [3]): −4.7 ± 4.7% | fold lower affinity for GHB receptors than 3-hydroxyphenylacetic acid [19]: 4 fold | affinity at GABA receptors / displacement of [3H]GABA compared with 3-hydroxyphenylacetic acid (GABA receptors [9]): lower extent
